Results from patent US20050164924A1, “Method and composition for treating skin wounds with epidermal growth factor” (priority 2002, published 2005).
Several values for one entry are separate records, joined by “and”; a condition that tells them apart may be missing. Equal entries are not always repeated.

Key:
diabetic foot ulcer = assay: Randomized double-blind controlled trial of hEGF in diabetic foot ulcer healing; assay type: in vivo, human; details: for 100% Healed Time, mean survival time: Kaplan Meier; for healing rate by the end of 12 weeks: topical daily
Description: A randomized double-blind controlled trial was conducted to study the efficacy of human epidermal growth factor hEGF) in promoting diabetic foot ulcer healing with 88 patients. Predetermined criteria were used for patient selection, they were; ulcer grade 1-2, ulcer located below the ankle, adequate perfusion as indicated by an ankle brachial-index of ≧0.7. Patients were excluded if: sugar control was very poor (HbAlc≧12%), or had severe grade ulcers (≧3). Initial assessment and standard wound care and debridement was given as in an ordinary diabetic foot clinic. The patients were reviewed two weeks later. In the second consultation, patients whose ulcer healed more than 25% with conventional foot ulcer care were excluded. Informed consent was obtained from the remaining patients and randomization was done by drawing envelopes, although the patients were blind to the concentrations of hEGF during the experiments. The final candidates were randomly assigned into three groups: • 1. Group 1 were treated with Acetovegin® 5% cream alone, which has the following compositions as indicated in the package of the cream: 1 g of cream contains 2 mg (corresponding to dry mass) of deproteinized hemoderivative of calf blood, and 0.2 mg of benzalkonium chloride. There was no particular reason in choosing Acetovegin® 5% cream as the control other than this cream was available at the clinic where the experiments were conducted. • 2. Group 2 patients were treated with Acetovegin® 5% cream (with composition as stated above) plus 0.02% (g/g) hEGF. • 3. Group 3 patients were treated with Acetovegin® 5% cream (with composition as stated above) plus 0.04% (g/g) hEGF. All patients were followed up on a biweekly bass for wound care and debridement and trimming of keratosis. Antibiotic would be given if it was infected as indicated by purulent discharge or by positive bacterial culture. Photos of the wound's size were being taken for computer measurement and comparing with a reference area having a known size. Local application of study cream was applied and covered with sterile gauze. Patients were instructed to have daily normal saline dressing and local application of cream in the government out-patient-clinic or community nurse would be asked to have home visit for those with ambulatory problem. Wound parameters, such as exudates sign of infection granulation tissue and eschar were documented in each visit and complete healing was defined as full epithelialization of the wound with absence of discharge. Analysis was based on intention to treat and Kaplan Meier survival analysis was employed to compare the healing rate between different groups. One way ANOVA was used for clinical parameters analysis. If more than one wound was present in one patient the total areas of the ulcers was taken together and treated as one single wound. Of the 30 patients that suffered from unhealed ulcers they were randomly assigned into 3 groups as stated above: Group-1 (9/30), the control, was treated with Acetovegin® 5% cream alone; Group-2 (9/30) was treated with Acetovegin® 5% cream plus 0.02% (g/g) hEGF; Group-3, (14/32) Acetovegin® 5% cream plus 0.04% (g/g) hEGF. The end point of a treatment was defined as complete closure of the wound, whereas failure to heal was defined as incomplete healing after 12 weeks of treatment. The experiment in Example 1 was repeated using Acetovegin® 5% cream plus 0.03% (g/g) hEGF. 8 patients, named Group-4, were treated.

diabetes ulcers = assay: Individuals suffering from prolonged diabetes ulcers treated with 0.04% hEGF composition; assay type: in vivo, human; details: 0.04% (g/g) hEGF
Description: Three patients suffering from prolonged diabetes ulcers were treated with the composition of this invention containing 0.04% (g/g) hEGF. The following results were observed, with all of the patients were healed after as short as four weeks treatment: […]

[1] = tested on: right facial non-healing ulcer; assay: Individual suffering from prolonged unhealed surgical wound; assay type: in vivo, human; details: Patient D
Description: Patient D was admitted for investigation of right facial non-healing ulcer after extraction of right mandibular molars and excision of facial fistula eleven months ago. […] There was sloughing of the right mandibular alveolus and the wound was tender. […] However, “definitively negative finding for malignancy nor basal cell carcinoma, quite normal looking oral epithelial mucosa” was reported by a pathologist. […] Patient was reviewed after two weeks of hEGF (0.04% (g/g)) local application. The composition is the same as that used in the above Group-3 patients. The right facial wound was healing, base of the wound looked fleshy with no discharge. The wound area decreased in size by about 30%.

bedsore = assay: Individual suffering from bedsore; assay type: in vivo, human; details: 0.04% (g/g) EGF daily with normal saline dressing, after three-month treatment
Description: Patient B was bedridden at aged home for several years. […] They were referred to medical because the wound got worse with central grangrene after a two-month treatment.
They were then treated with Hibitane dressing for two weeks then normal saline dressing with the composition of this invention containing 0.04% (g/g) EGF daily.

burns = assay: Treating burns with EGF; assay type: in vivo; details: 0.001% (g) of EGF
corneal and burn wounds = details: EGF 10 μg/ml; cited from earlier work
venous stasis ulcers = details: EGF 10 μg/ml; cited from earlier work
[2] = Patient A, after 2 weeks treatment
[3] = Patient A, after 3 weeks treatment
[4] = Patient B, after 3 weeks treatment
[5] = Patient B, after 5 weeks treatment
[6] = Patient B, after 9 weeks treatment
[7] = Patient C, after 4 weeks treatment
[8] = Patient C, after 6 weeks treatment

With human epidermal growth factor [hEGF] the total healing outcome (diabetic foot ulcer; 0.02% (g/g) EGF) was “may fail to achieve totally healing in some cases”, the “reduction of the time required to achieve 50% healing” value (diabetic foot ulcer; 0.02% (g/g) or 0.04% (g/g) EGF) was 2-4 weeks and the “results compared with 0.04% (g/g) EGF” value (diabetic foot ulcer; 0.03% (g/g) EGF) was “almost indistinguishable”. For the same substance, the total healing outcome (diabetic foot ulcer; 0.04% (g/g) EGF) was “all of the patients were totally healed after 12 wee”, the “50% Healed Time, mean survival time” value (diabetic foot ulcer; Group-2, 0.02% (g/g) hEGF) was 5.71±1.02 weeks and 5.71 weeks and the “50% Healed Time, median survival time” value (diabetic foot ulcer; Group-2, 0.02% (g/g) hEGF) was 6.00 weeks. For the same substance, the “100% Healed Time, mean survival time” value (diabetic foot ulcer; Group-2, 0.02% (g/g) hEGF) was 9.43±1.38 weeks and 9.43 weeks, the “100% Healed Time, median survival time” value (diabetic foot ulcer; Group-2, 0.02% (g/g) hEGF, limited to 12 weeks) was 12.00 weeks and the “healing rate by the end of 12 weeks” value (diabetic foot ulcer; Group-2: Acetovegin 5% cream plus 0.02% (g/g) hEGF) was 55%. For the same substance, the “50% Healed Time, mean survival time” value (diabetic foot ulcer; Group-3, 0.04% (g/g) hEGF) was 4.50±0.82 weeks and 4.50 weeks, the “50% Healed Time, median survival time” value (diabetic foot ulcer; Group-3, 0.04% (g/g) hEGF) was 4.00 weeks and the “100% Healed Time, median survival time” value (diabetic foot ulcer; Group-3, 0.04% (g/g) hEGF) was 6.00 weeks. For the same substance, the “100% Healed Time, mean survival time” value (diabetic foot ulcer; Group-3, 0.04% (g/g) hEGF) was 6.67 weeks, the “healing rate by the end of 12 weeks” value (diabetic foot ulcer; Group-3: Acetovegin 5% cream plus 0.04% (g/g) hEGF) was 100% and the “100% healing time, median survival time” value (diabetic foot ulcer; Group-4, 0.03% (g/g) hEGF) was 6 weeks. The “Cumulative Survival (unhealed fraction)” value (diabetic foot ulcer; Group-4, 0.03% (g/g) hEGF, 2 weeks) was 0.8750, the “Cumulative Survival (unhealed fraction)” value (diabetic foot ulcer; Group-4, 0.03% (g/g) hEGF, 4 weeks) was 0.6250 and the “Cumulative Survival (unhealed fraction)” value (diabetic foot ulcer; Group-4, 0.03% (g/g) hEGF, 6 weeks) was 0.5000. For the same substance, the “Cumulative Survival (unhealed fraction)” value (diabetic foot ulcer; Group-4, 0.03% (g/g) hEGF, 8 weeks) was 0.3750, the “Cumulative Survival (unhealed fraction)” value (diabetic foot ulcer; Group-4, 0.03% (g/g) hEGF, 10 weeks) was 0.2500 and the “Cumulative Survival (unhealed fraction)” value (diabetic foot ulcer; Group-4, 0.03% (g/g) hEGF, 12 weeks) was 0.1250. The “100% healing time, mean survival time (limited to 12)” value (diabetic foot ulcer; Group-4, Acetovegin 5% cream plus 0.03% (g/g) hEGF) was 7 weeks, the “Healing Rate” value (diabetes ulcers; [2]) was 36.25% and the “Ulcer Area” value (diabetes ulcers; [2]) was 1.02 cm^2. For the same substance, the “Healing Rate” value (diabetes ulcers; [3]) was 100%, the “Ulcer Area” value (diabetes ulcers; [3]) was 0 cm^2 and the “Healing Rate” value (diabetes ulcers; [4]) was 43.18%. The “Ulcer Area” value (diabetes ulcers; [4]) was 3.79 cm^2, the “Healing Rate” value (diabetes ulcers; [5]) was 75.71% and the “Ulcer Area” value (diabetes ulcers; [5]) was 1.62 cm^2. For the same substance, the “Healing Rate” value (diabetes ulcers; [6]) was 97.60%, the “Ulcer Area” value (diabetes ulcers; [6]) was 0.16 cm^2 and the “Healing Rate” value (diabetes ulcers; [7]) was 89.34%. The “Ulcer Area” value (diabetes ulcers; [7]) was 1.41 cm^2, the “Healing Rate” value (diabetes ulcers; [8]) was 100% and the “Ulcer Area” value (diabetes ulcers; [8]) was 0 cm^2. The “decrease of wound area in size” value ([1]; 0.04% (g/g) hEGF local application, after two weeks) was “about 30%”, the “reduction of wound in size” value ([1]; 0.04% hEGF applied locally, after 5 weeks) was “approximately 50%” and the wound outcome (bedsore) was “healed and completely closed”. The “effect on wound healing of burns” value (burns) was “effective in accelerating wound healing”, the “healing of corneal and burn wounds” value (corneal and burn wounds) was “promote healing” and the “epithelization in wounds of patients with venous stasis ulcers” value (venous stasis ulcers) was “failed to promote epithelization”.
